Counter-ions that a name gives are not always drawn.
Target: T1, recombinant human α1D receptor (Homo sapiens, UniProt P25100)
T1 construct: expressed in transfected cells; host or cells: HEK293
T1 sequence (P25100 1-572): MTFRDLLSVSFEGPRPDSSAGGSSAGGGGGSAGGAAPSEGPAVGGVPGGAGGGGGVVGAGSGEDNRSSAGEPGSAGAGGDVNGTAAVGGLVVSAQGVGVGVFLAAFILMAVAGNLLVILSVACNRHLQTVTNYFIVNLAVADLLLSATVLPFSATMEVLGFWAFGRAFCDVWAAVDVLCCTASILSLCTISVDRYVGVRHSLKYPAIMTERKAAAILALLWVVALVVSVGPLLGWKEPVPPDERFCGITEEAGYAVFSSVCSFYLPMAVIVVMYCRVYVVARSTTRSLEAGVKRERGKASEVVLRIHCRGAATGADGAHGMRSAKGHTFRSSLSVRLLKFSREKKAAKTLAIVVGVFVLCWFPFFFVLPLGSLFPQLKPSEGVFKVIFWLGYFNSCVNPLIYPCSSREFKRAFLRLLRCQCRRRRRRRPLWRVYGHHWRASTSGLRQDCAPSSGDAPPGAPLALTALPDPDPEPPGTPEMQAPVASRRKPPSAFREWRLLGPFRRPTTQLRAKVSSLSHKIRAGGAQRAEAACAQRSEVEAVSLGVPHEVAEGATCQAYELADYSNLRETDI
Assay: Adrenergic α1D selectivity binding assay ([3H]-prazosin)
Conditions: inhibition of [3H]-prazosin (0.3 nM) binding, HEK293 membranes; for IC50: read-out: α1 bind pIC50 (converted)
Outline: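 Displacement of [3H]-prazosin (0.3 nM) from recombinant human α1D receptor in HEK293-cell membranes, 2 h at room temperature, pH 7.4 HEPES/EDTA/gelatin buffer. Filtration and scintillation counting, non-specific binding set with 10 μM BMY7378; four-parameter logistic fit gives pIC50.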

SMILES: CC(C)(C)CN(CCNCCc1ccc(O)c2[nH]c(=O)sc12)C(=O)CCNCCc1ccccc1 [Example 6, N-(2,2-Dimethylpropyl)-N-(2-{[2-(4-hydroxy-2-oxo-2,3-dihydro-1,3-benzothiazol-7-yl)ethyl]amino}ethyl)-N^3-(2-phenylethyl)-β-alaninamide bis-trifluoroacetic acid salt]
- IC50: 126 nM

SMILES: O=C(CCNCCc1ccccc1)N(CCNCCc1ccc(O)c2[nH]c(=O)sc12)C1CCCCCC1 [Example 98, N-Cycloheptyl-N-(2-{[2-(4-hydroxy-2-oxo-2,3-dihydro-1,3-benzothiazol-7-yl)ethyl]amino}ethyl)-N^3-(2-phenylethyl)-β-alaninamide dihydrobromide salt]
- IC50: 63.1 nM

SMILES: CC(CN(C(=O)CCNCCc1cccc(F)c1)C1CCCCCC1)NCCc1ccc(O)c2[nH]c(=O)sc12 (stereo not drawn) [Example 104, N-Cycloheptyl-N^3-[2-(3-fluorophenyl)ethyl]-N-(2-{[2-(4-hydroxy-2-oxo-2,3-dihydro-1,3-benzothiazol-7-yl)ethyl]amino}propyl)-β-alaninamide bis-trifluoroacetic acid salt]
- IC50: 100 nM

SMILES: O=C(CCNCCc1cccs1)N(CCNCCc1ccc(O)c2[nH]c(=O)sc12)C1CCCCCC1 [Example 52, N^1-Cycloheptyl-N^1-(2-{[2-(4-hydroxy-2-oxo-2,3-dihydro-1,3-benzothiazol-7-yl)ethyl]amino}ethyl)-N^3-[2-(2-thienyl)ethyl]-β-alaninamide bis-trifluoroacetic acid salt]
- IC50: 100 nM

SMILES: O=C(CCNCCc1ccccc1Cl)N(CCNCCc1ccc(O)c2[nH]c(=O)sc12)C1CCCCC1 [Example 17, N^3-[2-(2-Chlorophenyl)ethyl]-N-cyclohexyl-N-(2-{[2-(4-hydroxy-2-oxo-2,3-dihydro-1,3-benzothiazol-7-yl)ethyl]amino}ethyl)-β-alaninamide bis-trifluoroacetic salt]
- IC50: 50.1 nM

SMILES: O=C(CCNCCc1ccc(Cl)s1)N(CCNCCc1ccc(O)c2[nH]c(=O)sc12)C1CCCCC1 [Example 72, N^3-[2-(5-Chloro-2-thienyl)ethyl]-N^1-cyclohexyl-N^1-(2-{[2-(4-hydroxy-2-oxo-2,3-dihydro-1,3-benzothiazol-7-yl)ethyl]amino}ethyl)-β-alaninamide bis-trifluoroacetic acid salt]
- IC50: 398 nM

SMILES: O=C(CCNCCc1nc2ccccc2[nH]1)N(CCNCCc1ccc(O)c2[nH]c(=O)sc12)C1CCCCC1 [Example 77, N^3-[2-(1H-Benzimidazol-2-yl)ethyl]-N^1-cyclohexyl-N^1-(2-{[2-(4-hydroxy-2-oxo-2,3-dihydro-1,3-benzothiazol-7-yl)ethyl]amino}ethyl)-β-alaninamide tris-trifluoroacetic acid salt]
- IC50: 251 nM

SMILES: CC(C)(C)CN(CCNCCc1ccc(O)c2[nH]c(=O)sc12)C(=O)CCNC(C)(C)Cc1ccccc1 [Example 38, N^3-(1,1-Dimethyl-2-phenylethyl)-N-(2,2-dimethylpropyl)-N-(2-{[2-(4-hydroxy-2-oxo-2,3-dihydro-1,3-benzothiazol-7-yl)ethyl]amino}ethyl)-β-alaninamide bis-trifluoroacetic acid salt]
- IC50: 794 nM

SMILES: O=C(CCNCCc1cccc(F)c1F)N(CCNCCc1ccc(O)c2[nH]c(=O)sc12)C1CCCCC1 [Example 93, N-Cyclohexyl-N^3-[2-(2,3-difluorophenyl)ethyl]-N-(2-{[2-(4-hydroxy-2-oxo-2,3-dihydro-1,3-benzothiazol-7-yl)ethyl]amino}ethyl)-β-alaninamide dihydrobromide salt]
- α1 bind pIC50: 6.7

SMILES: CC(C)(C)CN(CCNCCc1ccc(O)c2[nH]c(=O)sc12)C(=O)CCNCCc1cccc(F)c1 [Example 44, N^1-(2,2-Dimethylpropyl)-N^3-[2-(3-fluorophenyl)ethyl]-N^1-(2-{[2-(4-hydroxy-2-oxo-2,3-dihydro-1,3-benzothiazol-7-yl)ethyl]amino}ethyl)-β-alaninamide bis-trifluoroacetic acid salt]
- IC50: 316 nM

SMILES: O=C(CCNCCc1c(F)cccc1F)N(CCNCCc1ccc(O)c2[nH]c(=O)sc12)C1CCCCCC1 [Example 84, N^1-Cycloheptyl-N^3-[2-(2,6-difluorophenyl)ethyl]-N^1-(2-{[2-(4-hydroxy-2-oxo-2,3-dihydro-1,3-benzothiazol-7-yl)ethyl]amino}ethyl)-β-alaninamide bis-trifluoroacetic acid salt]
- IC50: 100 nM

SMILES: O=C(CCNCCc1ccc(Cl)c(Cl)c1)N(CCNCCc1ccc(O)c2[nH]c(=O)sc12)C1CCOCC1 [Example 24, N^3-[2-(3,4-Dichlorophenyl)ethyl]-N-(2-{[2-(4-hydroxy-2-oxo-2,3-dihydro-1,3-benzothiazol-7-yl)ethyl]amino}ethyl)-N-(tetrahydro-2H-pyran-4-yl)-β-alaninamide bis-trifluoroacetic acid salt]
- IC50: 631 nM

SMILES: O=C(CCNCCc1cccc(F)c1)N(CCNCCc1ccc(O)c2[nH]c(=O)sc12)CC12CC3CC(CC(C3)C1)C2 [Example 60, N^1-(1-Adamantylmethyl)-N^3-[2-(3-fluorophenyl)ethyl]-N^1-(2-{[2-(4-hydroxy-2-oxo-2,3-dihydro-1,3-benzothiazol-7-yl)ethyl]amino}ethyl)-β-alaninamide bis-trifluoroacetic acid salt]
- IC50: 316 nM

SMILES: O=C(CCNCCc1ccc(Cl)cc1)N(CCNCCc1ccc(O)c2[nH]c(=O)sc12)C1CCOCC1 [Example 26, N^3-[2-(4-Chlorophenyl)ethyl]-N-(2-{[2-(4-hydroxy-2-oxo-2,3-dihydro-1,3-benzothiazol-7-yl)ethyl]amino}ethyl)-N-(tetrahydro-2H-pyran-4-yl)-β-alaninamide bis-trifluoroacetic acid salt]
- IC50: 501 nM

SMILES: O=C(NCc1ccccc1)c1ccc(CCNCCC(=O)N(CCNCCc2ccc(O)c3[nH]c(=O)sc23)C2CCCCCC2)cc1 [Example 100, N-Benzyl-4-[2-({3-[cycloheptyl(2-{[2-(4-hydroxy-2-oxo-2,3-dihydro-1,3-benzothiazol-7-yl)ethyl]amino}ethyl)amino]-3-oxopropyl}amino)ethyl]benzamide bis-trifluoroacetic acid salt]
- IC50: 251 nM

SMILES: O=C(CCNCCc1ccccc1Cl)N(CCNCCc1ccc(O)c2[nH]c(=O)sc12)C1CCCC1 [Example 29, N^3-[2-(2-Chlorophenyl)ethyl]-N-cyclopentyl-N-(2-{[2-(4-hydroxy-2-oxo-2,3-dihydro-1,3-benzothiazol-7-yl)ethyl]amino}ethyl)-β-alaninamide bis-trifluoroacetic acid salt]
- IC50: 100 nM

SMILES: CC(C)(CO)CN(CCNCCc1ccc(O)c2[nH]c(=O)sc12)C(=O)CCNCCc1cccc(Cl)c1Cl [Example 67, N^3-[2-(2,3-Dichlorophenyl)ethyl]-N^1-(3-hydroxy-2,2-dimethylpropyl)-N^1-(2-{[2-(4-hydroxy-2-oxo-2,3-dihydro-1,3-benzothiazol-7-yl)ethyl]amino}ethyl)-β-alaninamide bis-trifluoroacetic acid salt]
- IC50: 200 nM

SMILES: CCCC(CCC)N(CCNCCc1ccc(O)c2[nH]c(=O)sc12)C(=O)CCNCCc1cccc(F)c1 [Example 63, N^3-[2-(3-Fluorophenyl)ethyl]-N^1-(2-{[2-(4-hydroxy-2-oxo-2,3-dihydro-1,3-benzothiazol-7-yl)ethyl]amino}ethyl)-N^1-(1-propylbutyl)-β-alaninamide bis-trifluoroacetic acid salt]
- IC50: 158 nM
